Data as given in ChEMBL document CHEMBL3351451, “In search of next generation antimalarials” (Bioorg Med Chem Lett, 2014).
Calls of active or inactive are those of the source. The calls are words filed in the database; no cut-off is given here.

How the values were obtained:
Plasmodium berghei [1] = assay: Antimalarial activity against Plasmodium berghei infected in mouse assessed as cure at 20 mg/kg measured at 60 days post-infection; type: functional, organism-based; parameters: dose 20 mg/kg
Plasmodium berghei [2] = assay: Antimalarial activity against Plasmodium berghei infected in mouse assessed as cure at 40 mg/kg measured at 60 days post-infection; type: functional, organism-based; parameters: dose 40 mg/kg
Plasmodium berghei [3] = assay: Antimalarial activity against Plasmodium berghei infected in mouse assessed as cure at 80 mg/kg measured at 60 days post-infection; type: functional, organism-based; parameters: dose 80 mg/kg
Plasmodium berghei [4] = assay: Antimalarial activity against Plasmodium berghei infected in mouse assessed as survival time at 5 mg/kg (reference value: 6.1 days); type: functional
Plasmodium berghei [5] = assay: Antimalarial activity against Plasmodium berghei infected in mouse assessed as cure at 160 mg/kg measured at 60 days post-infection; type: functional, organism-based; parameters: dose 160 mg/kg
Plasmodium cynomolgi [6] = assay: Antimalarial activity against Plasmodium cynomolgi infected in rhesus monkey assessed as curative activity at 0.316 mg/kg administered daily for 7 days; type: functional, organism-based; parameters: dose 0.316 mg/kg
Plasmodium cynomolgi [7] = assay: Antimalarial activity against Plasmodium cynomolgi infected in rhesus monkey assessed as curative activity at 1 mg/kg administered daily for 7 days; type: functional, organism-based; parameters: dose 1 mg/kg
Plasmodium berghei [8] = assay: Antimalarial activity against Plasmodium berghei infected in mouse assessed as cure at 5 mg/kg measured at 60 days post-infection; type: functional, organism-based; parameters: dose 5 mg/kg
Plasmodium berghei [9] = assay: Antimalarial activity against Plasmodium berghei infected in mouse assessed as cure at 10 mg/kg measured at 60 days post-infection; type: functional, organism-based; parameters: dose 10 mg/kg
Mus musculus [10] = assay: Toxicity in mouse infected with Plasmodium berghei at 320 mg/kg; type: organism-based; parameters: dose 320 mg/kg; details: in vivo
Mus musculus [11] = assay: Toxicity in mouse infected with Plasmodium berghei at 640 mg/kg; type: organism-based; parameters: dose 640 mg/kg; details: in vivo
Mus musculus [12] = assay: Toxicity in mouse infected with Plasmodium berghei at 160 mg/kg; type: organism-based; parameters: dose 160 mg/kg; details: in vivo
Plasmodium berghei [13] = assay: Antimalarial activity against Plasmodium berghei infected in mouse assessed as cure at 320 mg/kg measured at 60 days post-infection; type: functional, organism-based; parameters: dose 320 mg/kg
Plasmodium berghei [14] = assay: Antimalarial activity against Plasmodium berghei infected in mouse assessed as cure at 640 mg/kg measured at 60 days post-infection; type: functional, organism-based; parameters: dose 640 mg/kg
Plasmodium cynomolgi [15] = assay: Antimalarial activity against Plasmodium cynomolgi infected in rhesus monkey assessed as curative activity at 0.1 mg/kg administered daily for 7 days; type: functional, organism-based; parameters: dose 0.1 mg/kg
Plasmodium berghei [16] = assay: Antimalarial activity against Plasmodium berghei infected in mouse assessed as survival time at 20 mg/kg (reference value: 6.1 days); type: functional

Row | SMILES | Activity (Plasmodium berghei [2]) | Activity (Plasmodium berghei [3]) | MST (Plasmodium berghei [4]) [days] | Activity (Plasmodium berghei [5]) | Activity (Plasmodium cynomolgi [6]) | Activity (Plasmodium cynomolgi [7]) | Activity (Plasmodium berghei [9]) | Activity (Plasmodium berghei [13]) | Activity (Plasmodium berghei [14]) | Activity (Plasmodium cynomolgi [15]) | other results
1 | COc1cc(NC(C)CCCN)c2nccc(C)c2c1OCCCCCc1cccs1.O=C(O)/C=C/C(=O)O (configuration not stated) | Active | Active | 6.6 |  |  |  |  |  |  |  | Activity (Plasmodium berghei [1]): Active
2 | COc1cc(NC(C)CCCN)c2nccc(C)c2c1OCCCCCc1ccccc1.O=C(O)/C=C/C(=O)O (configuration not stated) | Active | Active | 7.9 | Active | Active | Active |  |  |  |  | 
3 | CCCCCOc1c(OC)cc(NC(C)CCCN)c2nccc(C)c12 (configuration not stated) |  |  |  |  |  | Active | Active |  |  |  | Activity (Plasmodium berghei [8]): Active; Activity (Mus musculus [10]): Toxic; Activity (Mus musculus [11]): Toxic
4 | COc1cc(NC(C)CCCN)c2nccc(C)c2c1OCCCc1ccccc1.O=C(O)/C=C/C(=O)O (configuration not stated) |  |  |  |  |  | Active | Active |  |  |  | Activity (Mus musculus [10]): Toxic; Activity (Mus musculus [11]): Toxic; Activity (Mus musculus [12]): Toxic
5 | COc1cc(NC(C)CCCN)c2nccc(C)c2c1OCCCCCCCc1ccccc1 (configuration not stated) | Active | Active |  | Active | inactive | Active | Active | Active | Active | inactive | Activity (Plasmodium berghei [1]): Active
6 | COc1cc(NC(C)CCCN)c2nccc(C)c2c1OCCCCCCCCCc1ccccc1.O=C(O)/C=C/C(=O)O (configuration not stated) |  |  |  | Active |  |  |  | Active | Active |  | MST (Plasmodium berghei [16]): 8.5 days
7 | COc1cc(NC(C)CCCN)c2nccc(C)c2c1OCCCCCCc1ccccc1.O=C(O)/C=C/C(=O)O (configuration not stated) |  |  | 5.9 |  | Active | Active |  |  |  | inactive | 
8 | COc1cc(NC(C)CCCN)c2nccc(C)c2c1OCCCCCCCCc1ccccc1.O=C(O)/C=C/C(=O)O (configuration not stated) | Active | Active | 5.7 | Active |  |  |  | Active | Active |  | 
9 | COc1cc(NC(C)CCCN)c2nccc(C)c2c1OCCCCCc1ccco1.O=C(O)/C=C/C(=O)O (configuration not stated) | Active | Active | 7.7 | Active |  |  |  |  |  |  | 
10 | COc1cc(NC(C)CCCN)c2nccc(C)c2c1OCCCCc1ccccc1.O=C(O)/C=C/C(=O)O (configuration not stated) |  | Active | 7.6 |  |  | Active |  |  |  | inactive | 
